Patent publication US6358885B1, “Substituted phenylheterocyclic herbicides” (Mississippi State University, priority 1992, dated 2002)

How the values were obtained:
[1] = tested on: rape; assay: Test C preemergence/postemergence greenhouse plant response rating 0 to 100; assay type: in vivo, Brassica napus; settings: POSTEMERGENCE; for Plant response rating, Rape: 0 to 100 scale
Summary of the method: (§1)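 Compounds in non-phytotoxic solvent applied preemergence to sandy loam one day after planting, postemergence at the 1–4 leaf stage, or to ~2.5 cm floodwater over silt loam.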

[2] = tested on: cotton; assay: Test B preemergence/postemergence greenhouse plant response rating 0 to 10; assay type: in vivo, Gossypium hirsutum; settings: for Plant response rating, Cotton: 0 to 10 scale
Summary of the method: (§2)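 Test chemicals, dissolved in a non-phytotoxic solvent, were applied to soil at planting and, at the same time, over foliage of seedlings at the one to four leaf stage.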

[3] = tested on: corn; assay: Test C preemergence/postemergence greenhouse plant response rating 0 to 100; assay type: in vivo, Zea mays; settings: POSTEMERGENCE; for Plant response rating, Corn: 0 to 100 scale
Summary of the method: as §1

[4] = tested on: blackgrass; assay: as above; assay type: in vivo, Alopecurus myosuroides; settings: POSTEMERGENCE; for Plant response rating, Blackgrass: 0 to 100 scale
Summary of the method: as §1

[5] = tested on: duck salad; assay: Test C flood test plant response rating 0 to 100; assay type: in vivo, Heteranthera limosa; settings: for Plant response rating Duck salad: flood test species listed under POSTEMERGENCE, 0 to 100 scale
Summary of the method: as §1

[6] = tested on: bedstraw; assay: Test B preemergence/postemergence greenhouse plant response rating 0 to 10; assay type: in vivo, Galium aparine; settings: for Plant response rating, Bedstraw: 0 to 10 scale
Summary of the method: as §2

[7] = tested on: wheat; assay: Test C preemergence/postemergence greenhouse plant response rating 0 to 100; assay type: in vivo, Triticum aestivum; settings: POSTEMERGENCE; for Plant response rating, Wheat: 0 to 100 scale
Summary of the method: as §1

[8] = tested on: rice; assay: Test B preemergence/postemergence greenhouse plant response rating 0 to 10; assay type: in vivo, Oryza sativa; settings: 0 to 10 scale
Summary of the method: as §2

[9] = tested on: wild buckwheat; assay: as above; assay type: in vivo, Polygonum convolvulus; settings: 0 to 10 scale
Summary of the method: as §2

[10] = tested on: sugar beet; assay: Test C preemergence/postemergence greenhouse plant response rating 0 to 100; assay type: in vivo, Beta vulgaris; settings: POSTEMERGENCE; for Plant response rating, Sugar beet: 0 to 100 scale
Summary of the method: as §1

[11] = tested on: barley; assay: Test B preemergence/postemergence greenhouse plant response rating 0 to 10; assay type: in vivo, Hordeum vulgare; settings: for Plant response rating, Barley: 0 to 10 scale
Summary of the method: as §2

[12] = tested on: cheatgrass; assay: as above; assay type: in vivo, Bromus secalinus; settings: for Plant response rating, Cheatgrass: 0 to 10 scale
Summary of the method: as §2

[13] = tested on: giant foxtail; assay: Test C preemergence/postemergence greenhouse plant response rating 0 to 100; assay type: in vivo, Setaria faberii; settings: POSTEMERGENCE; for Plant response rating, Giant foxtail: 0 to 100 scale
Summary of the method: as §1

[14] = tested on: ryegrass; assay: as above; assay type: in vivo, Lolium multiflorum; settings: POSTEMERGENCE; for Plant response rating Ryegrass: 0 to 100 scale
Summary of the method: as §1

[15] = tested on: barnyardgrass; assay: Test C flood test plant response rating 0 to 100; assay type: in vivo, Echinochloa crus-galli; settings: for Plant response rating (0 to 100), Barnyardgrass: under POSTEMERGENCE head (flood test species); for Plant response rating, Barnyardgrass: flood test species listed under POSTEMERGENCE, 0 to 100 scale
Summary of the method: as §1

[16] = tested on: blackgrass; assay: Test B preemergence/postemergence greenhouse plant response rating 0 to 10; assay type: in vivo, Alopecurus myosuroides; settings: for Plant response rating, Blackgrass: 0 to 10 scale
Summary of the method: as §2

[17] = tested on: cocklebur; assay: as above; assay type: in vivo, Xanthium pensylvanicum; settings: for Plant response rating, Cocklebur: 0 to 10 scale
Summary of the method: as §2

[18] = tested on: lambsquarters; assay: Test C preemergence/postemergence greenhouse plant response rating 0 to 100; assay type: in vivo, Chenopodium album; settings: POSTEMERGENCE; for Plant response rating Lambsquarters: 0 to 100 scale
Summary of the method: as §1

## COC(=O)C(C)Oc1cc(-c2nn3c(c2Cl)CCCC3)c(F)cc1Cl (stereo not drawn) [Compound 28]
[1]; 62 g/ha
  Plant response rating, Rape: 100
[1]; 250 g/ha
  Plant response rating, Rape: 100
[1]; Rate 4 g/ha
  Plant response rating (0 to 100), Rape: 50
[1]; Rate 16 g/ha
  Plant response rating (0 to 100), Rape: 70
[2]; POSTEMERGENCE, Rate 50 g/ha
  Plant response rating (0 to 10 scale), Cotton: 10
[2]; POSTEMERGENCE, Rate 200 g/ha
  Plant response rating, Cotton: 10
[2]; PREEMERGENCE, Rate 50 g/ha
  Plant response rating, Cotton: 0
[2]; Rate 200 g/ha, PREEMERGENCE
  Plant response rating, Cotton: 0
[3]; 62 g/ha
  Plant response rating, Corn: 80
[3]; 250 g/ha
  Plant response rating, Corn: 90
[3]; Rate 4 g/ha
  Plant response rating (0 to 100), Corn: 20
[3]; Rate 16 g/ha
  Plant response rating (0 to 100), Corn: 25
[4]; 62 g/ha
  Plant response rating, Blackgrass: 50
[4]; 250 g/ha
  Plant response rating, Blackgrass: 70
[4]; Rate 4 g/ha
  Plant response rating (0 to 100), Blackgrass: 20
[4]; Rate 16 g/ha
  Plant response rating (0 to 100), Blackgrass: 30
[5]; POSTEMERGENCE section, flood test, Rate 4 g/ha
  Plant response rating (0 to 100), Duck salad: 0
[5]; Rate 16 g/ha, under POSTEMERGENCE head (flood test species)
  Plant response rating (0 to 100), Duck salad: 0
[5]; 62 g/ha
  Plant response rating Duck salad: 30
[5]; 250 g/ha
  Plant response rating Duck salad: 70
[6]; POSTEMERGENCE, Rate 50 g/ha
  Plant response rating (0 to 10 scale), Bedstraw: 9
[6]; POSTEMERGENCE, Rate 200 g/ha
  Plant response rating, Bedstraw: 10
[6]; PREEMERGENCE, Rate 50 g/ha
  Plant response rating, Bedstraw: 8
[6]; Rate 200 g/ha, PREEMERGENCE
  Plant response rating, Bedstraw: 10
[7]; 62 g/ha
  Plant response rating, Wheat: 70
[7]; 250 g/ha
  Plant response rating, Wheat: 100
[7]; Rate 4 g/ha
  Plant response rating (0 to 100), Wheat: 40
[7]; Rate 16 g/ha
  Plant response rating (0 to 100), Wheat: 60
[8]; POSTEMERGENCE, Rate 50 g/ha
  Plant response rating, Rice: 5
[8]; POSTEMERGENCE, Rate 200 g/ha
  Plant response rating, Rice: 7
[8]; PREEMERGENCE, Rate 50 g/ha
  Plant response rating, Rice: 0
[8]; Rate 200 g/ha, PREEMERGENCE
  Plant response rating, Rice: 2
[9]; POSTEMERGENCE, Rate 50 g/ha
  Plant response rating, Wild buckwheat: 9
[9]; POSTEMERGENCE, Rate 200 g/ha
  Plant response rating, Wild buckwheat: 10
[9]; PREEMERGENCE, Rate 50 g/ha
  Plant response rating, Wild buckwheat: 7
[9]; Rate 200 g/ha, PREEMERGENCE
  Plant response rating, Wild buckwheat: 7
[10]; 62 g/ha
  Plant response rating, Sugar beet: 100
[10]; 250 g/ha
  Plant response rating, Sugar beet: 100
[10]; Rate 4 g/ha
  Plant response rating (0 to 100), Sugar beet: 100
[10]; Rate 16 g/ha
  Plant response rating (0 to 100), Sugar beet: 100
[11]; POSTEMERGENCE, Rate 50 g/ha
  Plant response rating (0 to 10 scale), Barley: 6
[11]; POSTEMERGENCE, Rate 200 g/ha
  Plant response rating, Barley: 6
[11]; PREEMERGENCE, Rate 50 g/ha
  Plant response rating, Barley: 0
[11]; Rate 200 g/ha, PREEMERGENCE
  Plant response rating, Barley: 0
[12]; POSTEMERGENCE, Rate 50 g/ha
  Plant response rating (0 to 10 scale), Cheatgrass: 6
[12]; POSTEMERGENCE, Rate 200 g/ha
  Plant response rating, Cheatgrass: 9
[12]; PREEMERGENCE, Rate 50 g/ha
  Plant response rating, Cheatgrass: 4
[12]; Rate 200 g/ha, PREEMERGENCE
  Plant response rating, Cheatgrass: 6
[13]; 62 g/ha
  Plant response rating, Giant foxtail: 100
[13]; 250 g/ha
  Plant response rating, Giant foxtail: 100
[13]; Rate 4 g/ha
  Plant response rating (0 to 100), Giant foxtail: 20
[13]; Rate 16 g/ha
  Plant response rating (0 to 100), Giant foxtail: 60
[14]; 62 g/ha
  Plant response rating Ryegrass: 60
[14]; 250 g/ha
  Plant response rating Ryegrass: 70
[14]; Rate 4 g/ha
  Plant response rating (0 to 100), Ryegrass: 20
[14]; Rate 16 g/ha
  Plant response rating (0 to 100), Ryegrass: 40
[15]; Rate 4 g/ha
  Plant response rating (0 to 100), Barnyardgrass: 35
[15]; Rate 16 g/ha
  Plant response rating (0 to 100), Barnyardgrass: 50
[15]; 62 g/ha
  Plant response rating, Barnyardgrass: 95
[15]; 250 g/ha
  Plant response rating, Barnyardgrass: 100
[16]; POSTEMERGENCE, Rate 50 g/ha
  Plant response rating (0 to 10 scale), Blackgrass: 4
[16]; POSTEMERGENCE, Rate 200 g/ha
  Plant response rating, Blackgrass: 6
[16]; PREEMERGENCE, Rate 50 g/ha
  Plant response rating, Blackgrass: 2
[16]; Rate 200 g/ha, PREEMERGENCE
  Plant response rating, Blackgrass: 4
[17]; POSTEMERGENCE, Rate 50 g/ha
  Plant response rating (0 to 10 scale), Cocklebur: 9
[17]; POSTEMERGENCE, Rate 200 g/ha
  Plant response rating, Cocklebur: 10
[17]; PREEMERGENCE, Rate 50 g/ha
  Plant response rating, Cocklebur: 0
[17]; Rate 200 g/ha, PREEMERGENCE
  Plant response rating, Cocklebur: 1
[18]; 62 g/ha
  Plant response rating Lambsquarters: 80
[18]; 250 g/ha
  Plant response rating Lambsquarters: 100
[18]; Rate 4 g/ha
  Plant response rating (0 to 100), Lambsquarters: 50
[18]; Rate 16 g/ha
  Plant response rating (0 to 100), Lambsquarters: 80
